Measurements as given in ChEMBL document CHEMBL1201862, “PubChem BioAssay data set” (2004).
Calls of active or inactive are those of the source.

Tests used:
[1] = target: T1, Short transient receptor potential channel 4 (Mus musculus, UniProt Q9QUQ5); experiment: calcium entry via TRPC4 opening agents – cell-based, HEK293 TRPC4/mu-opioid, Fluo-4 calcium, dose response (AID 434937); format: functional
T1 sequence (Q9QUQ5 whole entry): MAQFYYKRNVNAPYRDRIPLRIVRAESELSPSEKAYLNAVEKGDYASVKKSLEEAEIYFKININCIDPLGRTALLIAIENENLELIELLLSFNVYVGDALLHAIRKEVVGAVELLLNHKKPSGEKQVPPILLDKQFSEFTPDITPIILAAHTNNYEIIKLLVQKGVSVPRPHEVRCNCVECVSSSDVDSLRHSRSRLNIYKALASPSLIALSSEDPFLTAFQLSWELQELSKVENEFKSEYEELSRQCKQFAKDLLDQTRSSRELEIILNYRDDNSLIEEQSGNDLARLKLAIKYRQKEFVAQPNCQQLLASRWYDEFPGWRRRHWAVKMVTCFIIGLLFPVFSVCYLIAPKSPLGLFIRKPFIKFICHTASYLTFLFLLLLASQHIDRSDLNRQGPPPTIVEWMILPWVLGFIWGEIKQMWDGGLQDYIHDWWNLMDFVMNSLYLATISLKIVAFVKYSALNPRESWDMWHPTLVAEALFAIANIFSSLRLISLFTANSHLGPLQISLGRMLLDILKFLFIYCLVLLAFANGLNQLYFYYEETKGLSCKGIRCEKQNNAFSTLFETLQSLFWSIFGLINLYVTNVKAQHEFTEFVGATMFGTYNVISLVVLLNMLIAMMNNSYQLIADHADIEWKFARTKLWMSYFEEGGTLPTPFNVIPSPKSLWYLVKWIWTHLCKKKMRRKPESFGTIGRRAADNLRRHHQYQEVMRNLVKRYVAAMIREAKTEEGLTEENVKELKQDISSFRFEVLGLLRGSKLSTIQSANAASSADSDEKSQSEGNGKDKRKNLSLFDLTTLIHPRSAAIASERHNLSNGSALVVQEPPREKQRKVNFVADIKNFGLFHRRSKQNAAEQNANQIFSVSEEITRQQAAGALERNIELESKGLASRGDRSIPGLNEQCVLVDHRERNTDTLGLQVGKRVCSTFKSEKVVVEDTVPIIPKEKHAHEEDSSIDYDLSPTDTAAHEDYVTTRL

[2] = cells; format: functional, cell-based
[3] = cells; format: functional, cell-based; remark: listed apart in the source
[4] = target: T2, Insulin-degrading enzyme (Homo sapiens, UniProt P14735); experiment: Dose Response: Fluorescence polarization-based cell-based high throughput dose response assay for inhibitors of insulin-degrading enzyme (IDE). [Related pubchem assays: 434962 (Primary screen (IDE inhibitors in singlicate)), 449730 (Counterscreen (Cytotoxicity in triplicate)), 435028 (Confirmation (IDE inhibitors in triplicate)), 434984 (Summary …; format: functional
T2 sequence (P14735 whole entry): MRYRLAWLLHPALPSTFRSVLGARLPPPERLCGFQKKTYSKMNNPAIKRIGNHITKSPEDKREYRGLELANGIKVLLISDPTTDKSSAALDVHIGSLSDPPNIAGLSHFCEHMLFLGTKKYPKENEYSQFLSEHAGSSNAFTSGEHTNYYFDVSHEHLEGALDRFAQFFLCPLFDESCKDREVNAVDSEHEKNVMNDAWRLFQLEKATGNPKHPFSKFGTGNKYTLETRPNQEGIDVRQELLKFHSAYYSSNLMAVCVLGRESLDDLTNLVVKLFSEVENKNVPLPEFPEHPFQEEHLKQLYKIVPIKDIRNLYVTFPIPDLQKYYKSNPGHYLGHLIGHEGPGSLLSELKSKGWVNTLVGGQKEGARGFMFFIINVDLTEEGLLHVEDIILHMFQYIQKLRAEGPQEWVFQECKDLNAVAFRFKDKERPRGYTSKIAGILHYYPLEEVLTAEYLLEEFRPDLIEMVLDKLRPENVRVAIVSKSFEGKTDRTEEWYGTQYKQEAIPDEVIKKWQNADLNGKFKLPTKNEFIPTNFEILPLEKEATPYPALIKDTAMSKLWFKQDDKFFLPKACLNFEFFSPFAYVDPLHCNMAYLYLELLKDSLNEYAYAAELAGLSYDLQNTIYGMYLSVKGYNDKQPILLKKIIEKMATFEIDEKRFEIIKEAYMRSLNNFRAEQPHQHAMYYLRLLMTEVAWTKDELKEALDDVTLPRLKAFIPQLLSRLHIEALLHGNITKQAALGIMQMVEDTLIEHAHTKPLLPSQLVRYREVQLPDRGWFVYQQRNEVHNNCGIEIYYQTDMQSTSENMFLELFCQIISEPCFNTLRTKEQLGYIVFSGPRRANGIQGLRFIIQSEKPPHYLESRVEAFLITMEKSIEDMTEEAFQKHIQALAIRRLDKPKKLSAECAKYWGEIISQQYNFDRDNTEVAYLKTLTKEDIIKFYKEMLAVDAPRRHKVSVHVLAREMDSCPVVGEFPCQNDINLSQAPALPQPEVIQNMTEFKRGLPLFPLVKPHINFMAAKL

[5] = Counterscreen for IDE inhibitors: Luminescence-based cell-based high throughput dose response assay to identify compounds that are cytotoxic to HEK cells. [Related pubchem assays: 434962 (Primary screen (IDE inhibitors in singlicate)), 449730 (Counterscreen (Cytotoxicity in triplicate)), 435028 (Confirmation (IDE inhibitors in triplicate)) …; format: functional; details: HEK293
[6] = target: T3, Fatty acid synthase (Homo sapiens, UniProt P49327); experiment: inhibition of human FAS-TE enzyme activity – biochemical, kinetic fluorescence intensity, dose response (AID 624326); format: functional;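 also: rate of fluorescence rise from hydrolysis of a fluorogenic O-methyl fluorescein ester substrate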
[7] = target: Prothrombin (Homo sapiens, UniProt P00734); experiment: Thrombin 1536 HTS Dose Response Confirmation. [Related pubchem assays: 1046 (Thrombin 1536 HTS; hits were confirmed in this assay)]; format: functional
[8] = target: T3, Fatty acid synthase; experiment: inhibition of human FAS-TE enzyme activity – biochemical, endpoint fluorescence intensity, uHTS hits, dose response (AID 624327); format: functional;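 also: fluorescence from hydrolysis of an O-methyl fluorescein acyl ester substrate by the enzyme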
[9] = cells
[10] = target: Major prion protein (Homo sapiens, UniProt P04156); format: functional, cell-based
[11] = target: Protein-tyrosine kinase 2-beta (Homo sapiens, UniProt Q14289);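 also: potency of inhibitors of PYK2 kinase phosphorylation of poly-GT substrate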
[12] = target: SUMO-activating enzyme (Homo sapiens, UniProt Q9UBT2); experiment: blockers of UBC9-mediated SUMO conjugation – biochemical, AlphaScreen, SUMOylation inhibitor project, confirmation (AID 2018); format: functional
[13] = viability of HCT116 lacking mutant beta-catenin – cell-based, human colon tumor, dose response (AID 1045); format: functional;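 also: HCT116 colon tumor cells with beta catenin knocked out; cells exposed to compound for 60 hours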
[14] = reduction of Shn3 3'UTR-driven luciferase in osteoblasts – cell-based, Clone20 osteoblasts, firefly luciferase, cherry-picked, dose response (AID 624132); format: functional;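 also: firefly luciferase luminescence from reporter carrying the Shn3 3'UTR in osteoblasts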
[15] = loss of viability in HepG2 cells – cell-based, CellTiter-Glo, cherry-picked, cytotoxicity control for Shn3 inhibitor project, dose response (AID 624134); format: functional
[16] = Luminescence Cell-Based Dose Retest to Confirm Inhibitors of Cancer Stem Cells. [Related pubchem assays (depositor defined):AID2717, AID2721]; format: functional; details: Homo sapiens
[17] = non-specific 3'UTR reporter inhibition in Clone20-Shn3RL – cell-based, Renilla luciferase, cherry-picked, counter-screen for Shn3 inhibitor project, dose response (AID 624133); format: functional
[18] = target: T4, Microphthalmia-associated transcription factor (Homo sapiens, UniProt O75030); experiment: reducers of TRPM1 reporter luminescence, concentration series – cell-based, SK-MEL-5, cherry-picked, set 3, MITF inhibitor project, dose response (AID 493073); format: functional;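 also: SK-MEL-5 melanoma cells with luciferase driven by the MITF target TRPM1 promoter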
T4 sequence (O75030 whole entry): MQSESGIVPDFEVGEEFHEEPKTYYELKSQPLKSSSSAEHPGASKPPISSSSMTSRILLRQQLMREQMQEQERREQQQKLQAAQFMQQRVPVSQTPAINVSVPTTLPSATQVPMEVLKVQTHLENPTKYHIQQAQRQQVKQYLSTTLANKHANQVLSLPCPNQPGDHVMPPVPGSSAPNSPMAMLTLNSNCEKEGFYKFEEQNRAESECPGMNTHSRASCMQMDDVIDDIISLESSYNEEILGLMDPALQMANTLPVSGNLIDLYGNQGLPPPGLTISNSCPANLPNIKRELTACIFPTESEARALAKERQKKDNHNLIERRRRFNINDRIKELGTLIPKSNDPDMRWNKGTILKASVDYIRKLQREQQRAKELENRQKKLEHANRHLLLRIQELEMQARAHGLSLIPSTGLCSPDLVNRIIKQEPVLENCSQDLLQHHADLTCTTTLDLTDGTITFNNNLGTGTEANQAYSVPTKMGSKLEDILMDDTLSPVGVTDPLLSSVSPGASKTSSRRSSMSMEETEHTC

[19] = viability of PTEN-deleted HCT116 cells – cell-based, HCT116 PTEN knockout, dose response (AID 1047); format: functional;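 also: HCT116 colon tumor cells with PTEN knocked out; cells exposed to compound for 60 hours before readout; potency for loss of cell viability measured by luminescence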
[20] = target: T5, X-box-binding protein 1 (Homo sapiens, UniProt P17861); format: functional, Cricetulus griseus;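 also: confirmatory dose-response counter-screen serving a CHOP assay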
T5 sequence (P17861 whole entry): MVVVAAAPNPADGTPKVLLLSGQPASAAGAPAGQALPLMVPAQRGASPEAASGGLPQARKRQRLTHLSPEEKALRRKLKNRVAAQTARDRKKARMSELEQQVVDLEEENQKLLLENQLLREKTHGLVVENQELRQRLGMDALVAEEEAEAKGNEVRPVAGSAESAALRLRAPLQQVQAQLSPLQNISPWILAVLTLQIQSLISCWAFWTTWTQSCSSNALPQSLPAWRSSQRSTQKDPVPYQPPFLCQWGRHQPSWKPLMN

[21] = target: Intestinal-type alkaline phosphatase (Homo sapiens, UniProt P09923); experiment: human intestinal alkaline phosphatase activators, dose response, biochemical, luminescence, uHTS hits (AID 463120); format: functional
[22] = target: Glyceraldehyde-3-phosphate dehydrogenase (Homo sapiens, UniProt P04406)
[23] = target: T6, Alkaline phosphatase, tissue-nonspecific isozyme (Homo sapiens, UniProt P05186); experiment: potency against alkaline phosphatase TNAP – biochemical, luminescent, dose response, SAR follow-up (AID 1056)
T6 sequence (P05186 whole entry): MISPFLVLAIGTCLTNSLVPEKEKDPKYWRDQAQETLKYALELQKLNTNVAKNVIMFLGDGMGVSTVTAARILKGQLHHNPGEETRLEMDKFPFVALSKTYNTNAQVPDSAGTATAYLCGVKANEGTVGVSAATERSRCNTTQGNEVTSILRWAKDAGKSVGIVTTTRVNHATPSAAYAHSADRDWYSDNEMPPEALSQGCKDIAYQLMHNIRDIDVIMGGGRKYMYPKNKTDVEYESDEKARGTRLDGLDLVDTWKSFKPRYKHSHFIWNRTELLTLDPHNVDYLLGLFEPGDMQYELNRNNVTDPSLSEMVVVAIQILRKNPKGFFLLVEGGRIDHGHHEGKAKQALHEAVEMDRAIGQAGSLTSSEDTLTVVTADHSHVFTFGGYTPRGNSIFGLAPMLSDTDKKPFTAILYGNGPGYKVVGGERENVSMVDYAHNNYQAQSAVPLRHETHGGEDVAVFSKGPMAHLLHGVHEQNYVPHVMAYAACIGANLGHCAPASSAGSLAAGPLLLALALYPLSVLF

SMILES: O=C(C1CCCN(Cc2ccccc2F)C1)N1CCc2ccccc2C1 (centres undefined)
- EC50 [1]: 0.299 µM (active)
- EC50 [2]: > 350 µM (not active)
- EC50 [3]: > 350 µM (not active)

SMILES: O=C(O)CC12CC3CC(C1)CC(n1ncc(NCc4ccccc4Cl)c(Cl)c1=O)(C3)C2
- IC50 [4]: 9.59 µM (active)
- IC50 [5]: > 55.7 µM (not active)

SMILES: CCn1cc(C(=O)NCc2ccco2)c(=O)c2cc(S(=O)(=O)N3CCCCCC3)ccc21
- IC50 [6]: 2.32 µM (active)
- IC50 [7]: 14.7 µM (active)
- IC50 [8]: 2.96 µM (active)

SMILES: CCOC(=O)CSc1nc(C(C)C)nc2ccccc12
- IC50 [9]: > 138 µM (inactive)
- IC50 [10]: 1.08 µM (active)
- IC50 [11]: > 69.5 µM (not active)

SMILES: N#C/C(=C(/O)c1ccc(S(=O)(=O)N(CCCl)CCCl)cc1)c1nc2ccccc2[nH]1
- IC50 [12]: 73.8 µM (active)

SMILES: CC(=O)OCCCNc1cc(Sc2ccc(Cl)cc2)c2nonc2c1[N+](=O)[O-]
- EC50 [13]: 11.3 µM (active)
- AC50 [14]: 1.14 µM (active)
- AC50 [15]: 43.7 µM (active)
- AC50 [16]: 4.57 µM (active)
- AC50 [17]: 7.64 µM (active)
- AC50 [18]: 10.9 µM (active)
- EC50 [19]: 13.1 µM (active)
- Absolute IC50 (XBP1) [20]: 10 µM

SMILES: Cc1ccc(O)c(N/C=C/C(=O)c2ccc(F)cc2)c1
- EC50 [21]: > 100 µM (inactive)

SMILES: CCCC(=O)Nc1ccc2oc(-c3cncc(Br)c3)nc2c1
- IC50 [12]: 90.5 µM (active)

SMILES: CNCC(=O)N1CCN(c2ncc(C(F)(F)F)cc2Cl)CC1
- EC50 [1]: 0.105 µM (active)

SMILES: Cc1ccc(C(C(=O)NC2CCCCC2)N(C(=O)Cc2c[nH]c3ccccc23)c2ccccc2C)o1 (centres undefined)
- Absolute IC50 (XBP1) [20]: 10 µM

SMILES: CC(=N)/C(C#N)=C(/O)CSc1nc2cc(Cl)ccc2s1
- IC50 [7]: > 50 µM (not active)

SMILES: COc1cc(/C=C2\SC(=S)N(NC(C)=O)C2=O)ccc1OC(=O)c1ccco1
- IC50 [4]: 5.78 µM (active)
- IC50 [5]: > 55.7 µM (not active)

SMILES: O=C1c2ccccc2C(=O)N1c1nnc(CCc2ccccc2)[nH]1
- IC50 [22]: > 100 µM (not active)
- IC50 [23]: 66.5 µM (active)
